What all share (format): functional
Test [1] deals with Serine/threonine-protein kinase PLK1 (Homo sapiens, UniProt P53350).
The target of test [2] is Macrophage colony-stimulating factor 1 receptor (Homo sapiens, UniProt P07333).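 Note: value comes from the Navigating the Kinome screening panel, CSF1R member.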
Test [3] has as its target Serine/threonine-protein kinase pim-3 (Homo sapiens, UniProt Q86V86).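 Note: value obtained as one member of a broad kinase panel profiling effort.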
For test [4], the target named is Glycogen synthase kinase-3 alpha (Homo sapiens, UniProt P49840).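 Note: GSK3A result taken from a broad kinome-wide kinase panel.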
Glycogen synthase kinase-3 alpha, sequence (P49840 whole entry): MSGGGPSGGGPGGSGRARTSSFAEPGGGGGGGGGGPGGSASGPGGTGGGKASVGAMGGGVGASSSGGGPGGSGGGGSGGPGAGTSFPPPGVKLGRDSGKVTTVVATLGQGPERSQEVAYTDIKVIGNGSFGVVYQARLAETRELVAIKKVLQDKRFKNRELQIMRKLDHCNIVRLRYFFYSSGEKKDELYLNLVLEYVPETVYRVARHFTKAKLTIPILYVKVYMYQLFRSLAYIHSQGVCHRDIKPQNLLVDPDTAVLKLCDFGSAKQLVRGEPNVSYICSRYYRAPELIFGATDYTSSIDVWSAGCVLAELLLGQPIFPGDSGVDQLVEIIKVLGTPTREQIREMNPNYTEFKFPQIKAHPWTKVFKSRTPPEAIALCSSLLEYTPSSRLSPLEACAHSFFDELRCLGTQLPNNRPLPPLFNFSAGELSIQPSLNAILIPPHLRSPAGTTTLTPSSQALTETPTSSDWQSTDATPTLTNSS
The target in test [5] is Calcium/calmodulin-dependent protein kinase type 1 (Homo sapiens, UniProt Q14012).
Calcium/calmodulin-dependent protein kinase type 1, sequence (Q14012 whole entry): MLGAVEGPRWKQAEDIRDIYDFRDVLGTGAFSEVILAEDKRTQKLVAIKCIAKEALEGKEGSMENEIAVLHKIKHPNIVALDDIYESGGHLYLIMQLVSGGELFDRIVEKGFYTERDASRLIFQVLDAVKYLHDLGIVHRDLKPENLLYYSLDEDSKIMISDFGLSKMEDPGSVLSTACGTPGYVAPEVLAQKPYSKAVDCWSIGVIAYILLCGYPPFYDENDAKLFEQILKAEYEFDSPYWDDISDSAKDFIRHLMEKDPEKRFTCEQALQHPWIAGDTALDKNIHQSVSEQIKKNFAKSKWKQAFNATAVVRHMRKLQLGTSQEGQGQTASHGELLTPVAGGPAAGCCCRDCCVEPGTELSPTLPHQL
Test [6] deals with Glycogen synthase kinase-3 beta (Homo sapiens, UniProt P49841).
The target of test [7] is Receptor tyrosine-protein kinase erbB-4 (Homo sapiens, UniProt Q15303).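 Note: ERBB4 member of a kinome-wide kinase profiling panel.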
The target in test [8] is Serine/threonine-protein kinase Chk2 (Homo sapiens, UniProt O96017).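 Note: CHEK2 entry within a kinome-wide screening panel.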
Serine/threonine-protein kinase Chk2, sequence (O96017 whole entry): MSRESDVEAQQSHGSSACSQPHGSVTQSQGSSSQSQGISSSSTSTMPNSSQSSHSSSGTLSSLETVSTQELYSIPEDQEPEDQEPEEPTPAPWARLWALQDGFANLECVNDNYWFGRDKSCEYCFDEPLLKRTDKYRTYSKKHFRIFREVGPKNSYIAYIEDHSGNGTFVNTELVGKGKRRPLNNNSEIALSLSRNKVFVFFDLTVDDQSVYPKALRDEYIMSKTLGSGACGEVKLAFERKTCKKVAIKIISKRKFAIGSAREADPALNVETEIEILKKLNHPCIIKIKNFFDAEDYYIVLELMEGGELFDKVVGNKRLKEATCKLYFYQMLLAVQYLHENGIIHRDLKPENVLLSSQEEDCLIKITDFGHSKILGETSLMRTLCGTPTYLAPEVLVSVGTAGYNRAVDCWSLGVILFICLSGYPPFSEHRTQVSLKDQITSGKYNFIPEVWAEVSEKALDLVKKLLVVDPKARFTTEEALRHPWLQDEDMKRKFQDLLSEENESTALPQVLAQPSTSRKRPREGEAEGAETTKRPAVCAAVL
The target in test [9] is Lymphokine-activated killer T-cell-originated protein kinase (Homo sapiens, UniProt Q96KB5).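 Note: value comes from a kinase panel screen in which TOPK was one of the panel members.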
Lymphokine-activated killer T-cell-originated protein kinase, sequence (Q96KB5 whole entry, canonical isoform): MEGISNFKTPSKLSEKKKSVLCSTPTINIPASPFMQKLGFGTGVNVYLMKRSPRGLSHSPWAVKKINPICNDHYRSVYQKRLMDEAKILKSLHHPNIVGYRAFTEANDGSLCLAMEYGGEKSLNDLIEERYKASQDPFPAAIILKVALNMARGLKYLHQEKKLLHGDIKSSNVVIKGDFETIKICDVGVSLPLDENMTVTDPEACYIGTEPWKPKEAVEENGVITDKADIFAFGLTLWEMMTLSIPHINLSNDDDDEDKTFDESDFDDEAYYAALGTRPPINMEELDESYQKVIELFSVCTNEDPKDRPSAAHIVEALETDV
Test [10] concerns the target Phosphorylase b kinase gamma catalytic chain, liver/testis isoform (Homo sapiens, UniProt P15735).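 Note: PHKG2 measured as one member of a kinome-wide kinase panel.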
Test [11] deals with Tyrosine-protein kinase receptor TYRO3 (Homo sapiens, UniProt Q06418).
The target in test [12] is Serine/threonine-protein kinase D2 (Homo sapiens, UniProt Q9BZL6).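 Note: measured against PRKD2 as one member of a kinome-wide kinase profiling panel.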
Test [13] has as its target Ribosomal protein S6 kinase beta-1 (Homo sapiens, UniProt P23443).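 Note: measured as one member of a kinome-wide profiling panel.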
In test [14] the target is Dual specificity protein kinase CLK2 (Homo sapiens, UniProt P49760).
Test [15] concerns the target cAMP-dependent protein kinase catalytic subunit alpha (Homo sapiens, UniProt P17612).
The target of test [16] is MAP kinase-interacting serine/threonine-protein kinase 2 (Homo sapiens, UniProt Q9HBH9).
Test [17] concerns the target Casein kinase II subunit alpha (Homo sapiens, UniProt P68400).
In test [18] the target is Vascular endothelial growth factor receptor 2 (Homo sapiens, UniProt P35968).
For test [19], the target named is Mitogen-activated protein kinase 12 (Homo sapiens, UniProt P53778).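 Note: measured as one member of a kinome-wide kinase profiling panel.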
For test [20], the target named is Dual specificity tyrosine-phosphorylation-regulated kinase 4 (Homo sapiens, UniProt Q9NR20).
For test [21], the target named is Receptor-type tyrosine-protein kinase FLT3 (Homo sapiens, UniProt P36888).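 Note: FLT3 was tested as one member of a kinome-wide kinase panel.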
Receptor-type tyrosine-protein kinase FLT3, sequence (P36888 whole entry, canonical isoform): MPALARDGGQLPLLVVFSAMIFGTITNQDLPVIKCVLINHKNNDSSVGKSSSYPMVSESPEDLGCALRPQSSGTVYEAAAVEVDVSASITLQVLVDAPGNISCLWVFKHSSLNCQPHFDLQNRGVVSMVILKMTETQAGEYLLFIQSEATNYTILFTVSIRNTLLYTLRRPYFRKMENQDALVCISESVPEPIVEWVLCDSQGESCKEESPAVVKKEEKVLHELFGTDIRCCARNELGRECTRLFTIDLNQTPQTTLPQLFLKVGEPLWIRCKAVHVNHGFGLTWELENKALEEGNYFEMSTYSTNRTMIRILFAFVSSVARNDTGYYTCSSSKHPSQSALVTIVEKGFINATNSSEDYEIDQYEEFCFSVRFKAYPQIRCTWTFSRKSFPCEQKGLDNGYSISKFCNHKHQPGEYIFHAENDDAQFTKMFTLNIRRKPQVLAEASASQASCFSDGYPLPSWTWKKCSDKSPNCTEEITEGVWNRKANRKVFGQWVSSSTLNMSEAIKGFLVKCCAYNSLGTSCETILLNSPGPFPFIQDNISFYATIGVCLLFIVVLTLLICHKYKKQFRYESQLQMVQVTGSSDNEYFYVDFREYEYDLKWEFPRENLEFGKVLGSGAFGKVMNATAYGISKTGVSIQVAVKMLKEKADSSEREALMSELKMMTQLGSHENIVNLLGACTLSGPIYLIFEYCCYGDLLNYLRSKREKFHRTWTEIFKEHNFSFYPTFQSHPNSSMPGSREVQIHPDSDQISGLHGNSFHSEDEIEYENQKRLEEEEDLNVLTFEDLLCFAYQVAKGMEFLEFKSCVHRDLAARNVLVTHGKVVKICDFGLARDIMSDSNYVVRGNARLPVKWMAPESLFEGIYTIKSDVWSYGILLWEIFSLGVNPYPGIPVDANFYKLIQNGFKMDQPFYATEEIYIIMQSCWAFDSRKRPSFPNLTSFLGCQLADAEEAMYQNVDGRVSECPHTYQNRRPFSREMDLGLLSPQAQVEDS
Test [22] has as its target Casein kinase I isoform gamma-1 (Homo sapiens, UniProt Q9HCP0).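 Note: measured as the CSNK1G1 member of a kinome profiling panel.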
Test [23] has as its target 5'-AMP-activated protein kinase catalytic subunit alpha-1 (Homo sapiens, UniProt Q13131).
In test [24] the target is Cyclin-dependent kinase 1 (Homo sapiens, UniProt P06493).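 Note: Kinome-wide panel profiling, with the target listed as panel member CDC2.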
The target of test [25] is Rho-associated protein kinase 1 (Homo sapiens, UniProt Q13464).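 Note: measured within a broad kinome-wide panel profiling many kinases.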
The target of test [26] is Non-receptor tyrosine-protein kinase TYK2 (Homo sapiens, UniProt P29597).
In test [27] the target is Vascular endothelial growth factor receptor 3 (Homo sapiens, UniProt P35916).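 Note: value from a kinome-wide profiling panel, with FLT4 as the panel member.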
Test [28] deals with Serine/threonine-protein kinase TAO1 (Homo sapiens, UniProt Q7L7X3).
Serine/threonine-protein kinase TAO1, sequence (Q7L7X3 whole entry): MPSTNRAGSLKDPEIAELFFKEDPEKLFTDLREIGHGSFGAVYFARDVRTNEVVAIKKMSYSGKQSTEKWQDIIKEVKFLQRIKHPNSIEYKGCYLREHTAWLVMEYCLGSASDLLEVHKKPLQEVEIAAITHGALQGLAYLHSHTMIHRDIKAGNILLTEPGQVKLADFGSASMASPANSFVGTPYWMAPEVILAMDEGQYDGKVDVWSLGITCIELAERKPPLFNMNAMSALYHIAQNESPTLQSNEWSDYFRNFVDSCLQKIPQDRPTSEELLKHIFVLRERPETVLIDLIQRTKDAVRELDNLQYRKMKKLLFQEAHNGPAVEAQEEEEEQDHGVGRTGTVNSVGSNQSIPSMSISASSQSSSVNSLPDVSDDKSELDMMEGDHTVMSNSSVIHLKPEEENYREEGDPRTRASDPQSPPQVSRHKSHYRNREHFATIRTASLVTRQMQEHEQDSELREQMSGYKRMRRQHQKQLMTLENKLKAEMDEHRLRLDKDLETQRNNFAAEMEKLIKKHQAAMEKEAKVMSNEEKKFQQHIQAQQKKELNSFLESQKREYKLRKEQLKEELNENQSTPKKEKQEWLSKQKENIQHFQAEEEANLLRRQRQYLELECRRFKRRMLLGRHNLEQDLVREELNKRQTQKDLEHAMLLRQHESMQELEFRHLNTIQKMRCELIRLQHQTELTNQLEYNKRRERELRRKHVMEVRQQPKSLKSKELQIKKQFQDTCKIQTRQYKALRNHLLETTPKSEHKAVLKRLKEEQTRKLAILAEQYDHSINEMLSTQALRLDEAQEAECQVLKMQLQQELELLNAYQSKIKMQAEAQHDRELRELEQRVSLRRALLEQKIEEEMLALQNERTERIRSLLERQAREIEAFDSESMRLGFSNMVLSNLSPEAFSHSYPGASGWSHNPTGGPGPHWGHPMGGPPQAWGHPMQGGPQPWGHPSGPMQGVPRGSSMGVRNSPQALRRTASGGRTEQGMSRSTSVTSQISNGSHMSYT
Test [29] has as its target Tyrosine-protein kinase Lyn (Homo sapiens, UniProt P07948).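 Note: lyn as one member of a kinase panel.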
In test [30] the target is Protein kinase C zeta type (Homo sapiens, UniProt Q05513).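 Note: measured as one member of a broad kinase profiling panel.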
Test [31] deals with Dual specificity protein kinase CLK4 (Homo sapiens, UniProt Q9HAZ1).
In test [32] the target is Mitogen-activated protein kinase 1 (Homo sapiens, UniProt P28482).
The target of test [33] is Serine/threonine-protein kinase 17A (Homo sapiens, UniProt Q9UEE5).
For test [34], the target named is T1, Replicative DNA helicase DnaB (Mycobacterium tuberculosis, UniProt P9WMR3).
T1 sequence (P9WMR3 whole entry): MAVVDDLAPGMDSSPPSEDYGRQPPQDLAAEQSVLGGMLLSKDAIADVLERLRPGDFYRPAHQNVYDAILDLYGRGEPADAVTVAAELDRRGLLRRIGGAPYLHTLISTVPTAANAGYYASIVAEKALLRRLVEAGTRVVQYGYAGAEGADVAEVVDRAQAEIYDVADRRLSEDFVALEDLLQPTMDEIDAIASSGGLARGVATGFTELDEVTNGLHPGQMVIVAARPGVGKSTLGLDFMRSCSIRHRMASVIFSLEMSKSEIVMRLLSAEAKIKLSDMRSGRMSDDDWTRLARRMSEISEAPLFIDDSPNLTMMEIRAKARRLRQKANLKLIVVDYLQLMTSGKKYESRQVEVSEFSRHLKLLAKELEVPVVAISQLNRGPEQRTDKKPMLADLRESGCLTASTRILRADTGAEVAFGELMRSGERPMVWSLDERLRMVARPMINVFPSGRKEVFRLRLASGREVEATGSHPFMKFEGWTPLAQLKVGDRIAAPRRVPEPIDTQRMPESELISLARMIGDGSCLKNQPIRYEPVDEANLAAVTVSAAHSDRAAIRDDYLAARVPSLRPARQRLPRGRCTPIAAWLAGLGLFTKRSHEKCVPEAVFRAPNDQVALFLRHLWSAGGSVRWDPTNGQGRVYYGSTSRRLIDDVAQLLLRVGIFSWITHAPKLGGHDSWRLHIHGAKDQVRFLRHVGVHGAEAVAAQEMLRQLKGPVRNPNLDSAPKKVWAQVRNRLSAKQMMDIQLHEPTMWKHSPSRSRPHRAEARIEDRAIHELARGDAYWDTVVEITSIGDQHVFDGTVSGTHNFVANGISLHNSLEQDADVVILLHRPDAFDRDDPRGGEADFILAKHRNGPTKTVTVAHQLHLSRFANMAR
Put plainly: DnaB intein splicing inhibitors, dose response, biochemical, cell-free fluorescence (AID 449749).

Activity calls are given as the source filed them.

One may read the Ki as a dissociation constant, usually derived from enzyme kinetics or from competition with a known ligand. A word on the AC50: it is the concentration giving half of the maximal activity seen.

5'-AMP-activated protein kinase catalytic subunit alpha-1, sequence (Q13131 whole entry): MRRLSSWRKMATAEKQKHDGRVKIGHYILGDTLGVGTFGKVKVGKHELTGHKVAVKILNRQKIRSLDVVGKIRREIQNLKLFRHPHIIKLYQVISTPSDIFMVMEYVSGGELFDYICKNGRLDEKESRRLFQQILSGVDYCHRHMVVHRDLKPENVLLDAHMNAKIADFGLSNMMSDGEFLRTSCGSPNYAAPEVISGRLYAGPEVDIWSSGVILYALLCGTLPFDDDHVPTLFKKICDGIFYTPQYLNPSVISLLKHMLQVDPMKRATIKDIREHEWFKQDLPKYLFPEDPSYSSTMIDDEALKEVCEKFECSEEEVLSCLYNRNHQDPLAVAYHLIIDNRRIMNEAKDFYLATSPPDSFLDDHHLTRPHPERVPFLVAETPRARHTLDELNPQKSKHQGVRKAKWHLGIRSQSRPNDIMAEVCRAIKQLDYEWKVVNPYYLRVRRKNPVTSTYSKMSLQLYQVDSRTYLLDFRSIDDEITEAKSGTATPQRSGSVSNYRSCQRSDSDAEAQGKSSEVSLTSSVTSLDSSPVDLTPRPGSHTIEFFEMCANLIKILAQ
Tyrosine-protein kinase Lyn, sequence (P07948 whole entry): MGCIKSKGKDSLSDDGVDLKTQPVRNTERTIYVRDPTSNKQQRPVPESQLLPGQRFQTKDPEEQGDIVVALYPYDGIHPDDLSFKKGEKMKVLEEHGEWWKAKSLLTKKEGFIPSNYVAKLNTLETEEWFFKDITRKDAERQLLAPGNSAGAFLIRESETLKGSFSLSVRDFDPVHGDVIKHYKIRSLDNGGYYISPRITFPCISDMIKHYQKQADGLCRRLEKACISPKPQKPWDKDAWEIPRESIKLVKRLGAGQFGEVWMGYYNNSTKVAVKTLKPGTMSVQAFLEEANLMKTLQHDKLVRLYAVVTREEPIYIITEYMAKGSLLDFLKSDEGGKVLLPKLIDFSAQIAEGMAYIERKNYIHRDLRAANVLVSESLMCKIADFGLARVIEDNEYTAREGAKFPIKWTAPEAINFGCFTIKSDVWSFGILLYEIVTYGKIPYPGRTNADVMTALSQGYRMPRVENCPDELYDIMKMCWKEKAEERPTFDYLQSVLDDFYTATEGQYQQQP

As for `Cn1cncc1C(OCc1c(-c2ccc(OC(F)(F)F)cc2)cc(C#N)c(=O)n1C)c1ccc(C#N)cc1` (centres undefined), the Ki was > 7.94 µM (inactive) in test [1]; > 2.51 µM (inactive) in test [2]; > 7.94 µM (inactive) in [3]; > 7.94 µM (inactive) in test [4]; > 5.01 µM (inactive) in test [5]; 2.51 µM (active) in test [6]. Also, the Ki is > 3.98 µM (inactive) in test [7]; > 1.58 µM (inactive) in test [8]; > 10 µM (inactive) in test [9]; > 5.01 µM (inactive) in [10]; > 2 µM (inactive) in test [11]; > 10 µM (inactive) in [12]. In addition, the Ki is 1.58 µM (active) in [13]; > 7.94 µM (inactive) in test [14]; > 7.94 µM (inactive) in test [15]; > 10 µM (inactive) in test [16]; > 6.31 µM (inactive) in test [17]; > 7.94 µM (inactive) in test [18]. Also, the Ki in test [19] was > 6.31 µM (inactive); in test [20], > 7.94 µM (inactive); in [21], 0.631 µM (active); in test [22] it was > 6.31 µM (inactive); in test [23], > 1.58 µM (inactive); in [24], > 7.94 µM (inactive). Also, the Ki in [25] was > 10 µM (inactive); in [26] it was > 2 µM (inactive); in [27], > 6.31 µM (inactive); in test [28] it was 3.98 µM (active); in test [29] it was 0.316 µM (active); in [30], > 7.94 µM (inactive). Besides, the Ki in test [31] was > 10 µM (inactive); in test [32] it was > 7.94 µM (inactive); in [33] it was > 3.98 µM (inactive).
`CCc1ccc(S(=O)(=O)/N=C2\C=C(NS(=O)(=O)c3ccccc3)C(=O)c3ccccc32)cc1`: the AC50 in [34] is 2.55 µM (active).

Source of the values: ChEMBL document CHEMBL1201862, “PubChem BioAssay data set” (2004).
